Laboratory results: patent publication US20230405003A1, “APPLICATION OF THYMIDINE DERIVATIVE IN PREPARATION OF DRUGS” (ONQUALITY PHARMACEUTICALS CHINA LTD., priority 2020, published 2023)

How the values were obtained:
[1] = tested on: hand-foot syndrome caused by capecitabine in SD rats; experiment: Rat model of hand-foot syndrome caused by capecitabine, gel application; assay type: in vivo; details: capecitabine 4000 mg/kg once daily, 40 days; for Control Rate Forepaws / Control Rate Hindpaws: rats
Protocol: A rat animal model was established. 6-week aged female SD rats were administered with capecitabine by daily gavage. The degree of hand-foot syndrome in paws is similar, and there was no difference between the left and right paws. Similar to the human body, rats developed hand-foot syndrome after oral administration of capecitabine. The causes of the two are the same, and the disorder is also very similar. Therefore, rats are very good animal models for simulating the hand-foot syndrome caused by capecitabine.
After SD rats were fed and adapted for one week (about 200 g), the rats were divided into groups, with 10 rats in each group. Then, the rats were subject to gavage administration. Capecitabine was dissolved in a 1:1 mixed solution of castor oil and ethanol and diluted for three times with PBS buffer. After gavage, the rats were fixed with a fixed cylinder, and a gel of thymidine derivative (or a compounded gel of thymidine derivative and uridine derivative) was applied to double hind paws (about 1 cm*3 cm) of the rats in group of administration (the types and concentrations are shown in Table 4), and a blank gel was applied to the group of blank (as a blank control). After approximately 4 hours of application, the rats were released after 4 hours, wiped with clean water to remove any residual drug at the application site, and allowed back to the cage. The thymidine derivative gel (or the compounded gel of thymidine derivative and uridine derivative) was administered with gavage every day. The gavage and application tests are repeated daily until the group of blank has developed obvious hand-foot syndrome.
Table 4 lists the combinations of animal experiments of capecitabine and the thymidine derivative gel (or the compounded gel of thymidine derivative and uridine derivative) and the corresponding experimental results (wherein, the data in the column of control rate=the occurrence rate of hand-foot syndrome in group of blank—the occurrence rate of hand-foot syndrome in group of administration). […]

HaCaT cells = experiment: Relief of 5-FU proliferative toxicity to HaCaT cells (CCK-8 cell survival); assay type: cell-based; details: for Cell Survival Rate (increased percentage of cell survival compared with the Group of 5-FU): 5-Fu 20 μM, HaCaT cells
Protocol: The cultured skin cell HaCaTs were digested, counted, and inoculated into a 96-well plate with 5000-10000 cells in each well. After 24 h of culture, the wells were divided into Group of blank solvent control, Group of 5-FU, Group of 5-FU+thymidine derivative, Group of 5-FU+the combination of thymidine derivative and uridine derivative. […] adding a solution of 5-FU and a solution of thymidine derivative (the final concentrations of 5-FU and thymidine derivative are shown in Table 3, the solution of thymidine is an aqueous solution, while the solutions of thymidine derivatives are all DMSO solutions); Group of 5-FU+the combination of thymidine derivative and uridine derivative: adding a solution of 5-FU and a mixed solution of thymidine derivative and uridine derivative (the final concentrations of the solution of 5-FU and the mixed solution of thymidine derivative+uridine derivative are shown in Table 3, the solution of thymidine is an aqueous solution, while the mixed solutions of thymidine derivative+uridine derivative are all DMSO solutions); Group of blank solvent control: adding the same type of solution as those of the corresponding Group of 5-FU or Group of 5-FU+thymidine derivative (or the mixed solution of thymidine derivative+uridine derivative) in equal volume. Group of blank solvent control was used as control to exclude the influence of the solvents in Group of 5-FU and Group of 5-FU+thymidine derivative (or the mixed solution of thymidine derivative+uridine derivative) on the results. After additional 48 hours of culture, a Cell Counting Kit-8 (CCK-8) detection kit (C0037, purchased from Shanghai Beyotime Biotechnology) is used to determine the cell survival rate, thereby calculating the proliferative toxicity of 5-Fu/5-DFUR on cells and the relieving effect of the thymidine derivative (or the mixed solution of thymidine derivative+uridine derivative) on the proliferative toxicity. Using GraphPad Prism 6.0 software, the results were statistically analyzed by t-test and plotted.
Table 3 lists the combinations of 5-FU and thymidine derivative (or the mixed solution of thymidine derivative+uridine derivative), and the corresponding experimental results (wherein the data in the column of cell survival indicate the corresponding increased percentage of the cell survivals of Group of 5-FU+thymidine derivative or Group of 5-FU+the combination of thymidine derivative and uridine derivative compared with the Group of 5-FU). FIGS. 3-10 list the experimental results of several representative compounds.
The effect of thymidine derivative or a combination of thymidine derivative and uridine derivative on relieving the proliferative toxicity of a chemotherapeutical drug (5-FU) to HaCaT cells was tested according to the method in Examples 2-29. The test thymidine derivative or the combination of thymidine derivative and uridine derivative, as well as the final concentration of the test compounds were shown in Table 7.
Table 7 lists the combinations of 5-FU and thymidine derivative (or the mixed solution of thymidine derivative+uridine derivative), and the corresponding experimental results (wherein the data in the column of cell survival indicate the corresponding increased percentage of the cell survivals of Group of 5-FU+thymidine derivative or Group of 5-FU+the combination of thymidine derivative and uridine derivative compared with the Group of 5-FU). FIGS. 15-21 list the experimental results of several exemplary compounds.

Compound	Control Rate Forepaws ([1]; gel 1 wt%)	Control Rate Hindpaws ([1]; gel 1 wt%)	Control Rate Forepaws ([1]; gel 5 wt%)	Control Rate Hindpaws ([1]; gel 5 wt%)	Cell Survival Rate (increased percentage of cell survival compared with the Group of 5-FU) (HaCaT cells; selected compound final concentration 0.8 μM)	Cell Survival Rate (increased percentage of cell survival compared with the Group of 5-FU) (HaCaT cells; selected compound final concentration 1.6 μM)	Cell Survival Rate (increased percentage of cell survival compared with the Group of 5-FU) (HaCaT cells; selected compound final concentration 3.13 μM)	Cell Survival Rate (increased percentage of cell survival compared with the Group of 5-FU) (HaCaT cells; selected compound final concentration 6.25 μM)	Cell Survival Rate (increased percentage of cell survival compared with the Group of 5-FU) (HaCaT cells; selected compound final concentration 12.5 μM)	Cell Survival Rate (increased percentage of cell survival compared with the Group of 5-FU) (HaCaT cells; selected compound final concentration 25 μM)	Cell Survival Rate (increased percentage of cell survival compared with the Group of 5-FU) (HaCaT cells; selected compound final concentration 50 μM)	Cell Survival Rate (increased percentage of cell survival compared with the Group of 5-FU) (HaCaT cells; selected compound final concentration 100 μM)	Control Rate ([1]; SD rats, gel 2 wt% on hind paws)	activation at 1 µM (HaCaT cells; Homo sapiens, HaCaT, increase vs Group of 5-FU, 5-FU 20 μM, compound 1 μM, 48 h, read-out: Cell Survival Rate)	activation at 10 µM (HaCaT cells; Homo sapiens, HaCaT, increase vs Group of 5-FU, 5-FU 20 μM, compound 10 μM, 48 h, read-out: Cell Survival Rate)	activation at 100 µM (HaCaT cells; Homo sapiens, HaCaT, increase vs Group of 5-FU, 5-FU 20 μM, compound 100 μM, 48 h, read-out: Cell Survival Rate)	activation at 500 µM (HaCaT cells; Homo sapiens, HaCaT, increase vs Group of 5-FU, 5-FU 20 μM, compound 500 μM, 48 h, read-out: Cell Survival Rate)	activation at 1000 µM (HaCaT cells; Homo sapiens, HaCaT, increase vs Group of 5-FU, 5-FU 20 μM, compound 1000 μM, 48 h, read-out: Cell Survival Rate)
Cc1ccc(Nc2c(F)cccc2Cl)c(CC(=O)OC[C@H]2O[C@@H](n3cc(C)c(=O)[nH]c3=O)C[C@@H]2O)c1 [T35]	25%	37.50%	75.00%	88%	23%-31%	25%-33%	42%-48%	64%-70%	95%-101%	84%-91%	85%-92%	39%-47%	–	–	–	–	–	–
CCC(=O)OC[C@H]1O[C@@H](n2cc(C)c(=O)[nH]c2=O)C[C@@H]1OC(=O)CC [T5]	–	–	–	–	–	–	–	–	–	–	–	–	30.00%	18 to 24%	55 to 65%	77 to 84%	78 to 85%	35 to 45%
